According to patent US20250304551A1 (SHANGHAI APEIRON THERAPEUTICS COMPANY LIMITED, priority 2022, published 2025):

Experiments:
OVCAR3 cells = assay: Cell proliferation activity test, OVCAR3 (CyQUANT Direct); format: cell-based; conditions: Homo sapiens, OVCAR-3, 72 h, 3 days incubation, CyQUANT fluorescence detection, read-out: OVCAR-3 Cell Viability_IC50_nM
Procedure, shortened: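 OVCAR3 cells seeded overnight, then exposed to compounds at 0-10 μM final (0.20% DMSO) for 3 days at 37° C. Cell number read by CyQUANT Direct fluorescence after 60 min at 37° C.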

HT29 cells = assay: CyQuant cell proliferation activity test, HT29; format: cell-based; conditions: Homo sapiens, HT-29, 72 h, HT29 2000 cells per well, 3 days incubation, initial concentration 3000 nM, IC50 by XLFIT, read-out: HT-29 Cell Viability_IC50_nM
Procedure, shortened: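 HT29 cells (2000/well, RPMI-1640 with 10% FBS) were plated overnight, then exposed to compound for 3 days at 37 °C, 5% CO2. Dosing was 9 concentrations, 3-fold dilutions from 3000 nM, in 0.20% DMSO. Proliferation was read with CyQuant reagent after 1 h, and IC50 derived from the curves.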

[1] = target: T1, Human KIF18A (amino acid sequence 1-417) (Homo sapiens, UniProt Q8NI77); assay: Enzyme activity detection experiment (ADP-Glo, KIF18A with tubulin and ATP); format: biochemical; conditions: tubulin 60 μg/mL, ATP 25 μM, KIF18A protein 2.5 nM, 120 minutes at ambient temperature, ADP-Glo chemiluminescence
T1 construct: purchased Viva Biotech (Shanghai) Ltd
Procedure, shortened: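 KIF18A (2.5 nM) was incubated with tubulin (60 μg/mL as added), ATP (25 μM) and serially diluted compound for 120 min at ambient temperature. ADP formed was detected by ADP-Glo: reagent for 30 min, then detection reagent for 30 min in the dark, with chemiluminescence read-out.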

T1 sequence (Q8NI77 1-417): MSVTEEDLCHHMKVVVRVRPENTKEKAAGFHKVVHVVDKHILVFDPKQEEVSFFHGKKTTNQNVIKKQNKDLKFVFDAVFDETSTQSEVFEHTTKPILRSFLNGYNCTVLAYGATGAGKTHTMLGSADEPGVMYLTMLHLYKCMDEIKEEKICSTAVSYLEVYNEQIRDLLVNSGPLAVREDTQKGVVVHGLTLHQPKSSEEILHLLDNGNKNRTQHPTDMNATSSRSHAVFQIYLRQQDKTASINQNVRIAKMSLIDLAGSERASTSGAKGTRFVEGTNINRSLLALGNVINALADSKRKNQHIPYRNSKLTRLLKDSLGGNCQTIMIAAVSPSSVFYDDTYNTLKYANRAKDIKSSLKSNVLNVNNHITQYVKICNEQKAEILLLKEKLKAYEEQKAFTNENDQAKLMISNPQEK
T1 sequence (Q2XVP4 whole entry partner): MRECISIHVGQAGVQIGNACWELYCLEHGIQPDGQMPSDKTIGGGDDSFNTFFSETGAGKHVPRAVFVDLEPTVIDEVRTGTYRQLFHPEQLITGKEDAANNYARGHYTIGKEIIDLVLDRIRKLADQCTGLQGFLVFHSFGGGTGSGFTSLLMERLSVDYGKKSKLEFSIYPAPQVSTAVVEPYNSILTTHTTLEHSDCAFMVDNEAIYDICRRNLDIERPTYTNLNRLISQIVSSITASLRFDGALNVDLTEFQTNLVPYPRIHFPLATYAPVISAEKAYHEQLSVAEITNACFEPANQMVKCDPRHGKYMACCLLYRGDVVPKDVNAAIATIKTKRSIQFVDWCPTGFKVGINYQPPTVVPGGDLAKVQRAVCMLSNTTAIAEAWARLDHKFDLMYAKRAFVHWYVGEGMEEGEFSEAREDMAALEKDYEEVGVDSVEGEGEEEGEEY
T1 sequence (P02554 whole entry partner): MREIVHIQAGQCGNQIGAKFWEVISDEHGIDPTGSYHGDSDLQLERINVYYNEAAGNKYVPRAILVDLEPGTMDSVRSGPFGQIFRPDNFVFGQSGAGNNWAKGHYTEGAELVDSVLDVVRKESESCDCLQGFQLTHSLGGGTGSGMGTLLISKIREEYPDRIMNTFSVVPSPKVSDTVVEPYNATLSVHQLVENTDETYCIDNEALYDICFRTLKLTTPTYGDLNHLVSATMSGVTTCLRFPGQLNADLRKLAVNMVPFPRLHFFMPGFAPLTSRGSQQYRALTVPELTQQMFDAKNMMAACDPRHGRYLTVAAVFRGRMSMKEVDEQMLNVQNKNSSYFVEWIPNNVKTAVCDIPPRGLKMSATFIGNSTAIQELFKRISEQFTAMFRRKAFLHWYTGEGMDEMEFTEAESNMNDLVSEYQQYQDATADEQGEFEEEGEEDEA

| Compound | IC50 (OVCAR3 cells) [nM] | IC50 (HT29 cells) [nM] | IC50 [1] [nM] |
| --- | --- | --- | --- |
| COc1cc(-c2cn(-c3ccc(NS(=O)(=O)CCO)cc3N3CCC4(CC3)CC4)nn2)cc(N2CCC(F)(F)CC2)n1 [Example 62, N-(4-(4-(2-(4,4-difluoropiperidin-1-yl)-6-methoxypyridin-4-yl)-1H-1,2,3-triazol-1-yl)-3-(6-azaspiro[2.5]octan-6-yl)phenyl)-2-hydroxyethane-1-sulfonamide] | 59 | 60 | 272 |
| Cc1cc(-n2cc(-c3ccc(NS(=O)(=O)CCO)cc3N3CCC4(CC3)CC4)nn2)cc(N2CCC(F)(F)CC2)n1 [Example 91] | 87 | 126 | 278 |
| Nc1ccc2cc(-c3cn(-c4ccc(NS(=O)(=O)CCO)cc4N4CCC5(CC4)CC5)nn3)c(F)c(N3CCC(F)(F)CC3)c2n1 [Example 80, N-(4-{4-[2-amino-8-(4,4-difluoropiperidin-1-yl)-7-fluoroquinolin-6-yl]-1H-1,2,3-triazol-1-yl}-3-{6-azaspiro[2.5]octan-6-yl}phenyl)-2-hydroxyethane-1-sulfonamide] | 21 | 26 | 475 |
| Cc1cc(-n2cnc(-c3ccc(NS(=O)(=O)CCO)cc3N3CCC4(CC3)CC4)c2)cc(N2CCC(F)(F)CC2)n1 [Example 13, N-(4-(1-(2-(4,4-difluoropiperidin-1-yl)-6-methylpyridin-4-yl)-1H-imidazol-4-yl)-3-(6-azaspiro[2.5]octan-6-yl)phenyl)-2-hydroxyethane-1-sulfonamide] | 472 | 444 | 1280 |
| O=S(=O)(CCO)Nc1ccc(-c2nnc(-c3cc4cccn4c(N4CCC(F)(F)CC4)n3)o2)c(N2CCC3(CC2)CC3)c1 [Example 32] | 187 | 251 | 113 |
| O=S(=O)(CCO)Nc1ccc(-n2cc(-c3cc(O)nc(N4CCC(F)(F)CC4)n3)nn2)c(N2CCC3(CC2)CC3)c1 [Example 52, N-(4-(4-(2-(4,4-difluoropiperidin-1-yl)-6-hydroxypyrimidin-4-yl)-1H-1,2,3-triazol-1-yl)-3-(6-azaspiro[2.5]octan-6-yl)phenyl)-2-hydroxyethane-1-sulfonamide] | 110 | 299 | 25 |
| O=S(=O)(CCO)Nc1ccc(-n2cc(-c3cc(NCc4ccccn4)nc(N4CCC(F)(F)CC4)n3)nn2)c(N2CCC3(CC2)CC3)c1 [Example 59, N-(3-{6-azaspiro[2.5]octan-6-yl}-4-{4-[2-(4,4-difluoropiperidin-1-yl)-6-{[(pyridine-2-yl)methyl]amino}pyrimidin-4-yl]-1H-1,2,3-triazol-1-yl}phenyl)-2-hydroxyethane-1-sulfonamide] | 26 | 34 | 437 |
| Cc1cc(-c2nnc(-c3ccc(NS(=O)(=O)CCO)cc3N3CCC4(CC3)CC4)o2)nc(N2CCC(C)(O)CC2)n1 [Example 19, 2-hydroxy-N-(4-(5-(2-(4-hydroxy-4-methylpiperidin-1-yl)-6-methylpyrimidin-4-yl)-1,3,4-oxadiazol-2-yl)-3-(6-azaspiro[2.5]octan-6-yl)phenyl)ethane-1-sulfonamide] | 1400 | > 3000 | 630 |
| O=S(=O)(CCO)Nc1ccc(-c2nnc(-c3cc4cccnc4c(N4CCC(F)(F)CC4)c3F)o2)c(N2CCC3(CC2)CC3)c1 [Example 30, N-(4-(5-(8-(4,4-difluoropiperidin-1-yl)-7-fluoroquinolin-6-yl)-1,3,4-oxadiazol-2-yl)-3-(6-azaspiro[2.5]octan-6-yl)phenyl)-2-hydroxyethane-1-sulfonamide] | 55 | 61 | 255 |
| Cc1cc(-c2nnc(-c3ccc(NS(=O)(=O)CCO)cc3N3CCC4(CC3)CC4)o2)nc(N2CCCC(O)C2)n1 (stereo not drawn) [Example 17, 2-hydroxy-N-(4-(5-(2-(3-hydroxypiperidin-1-yl)-6-methylpyrimidin-4-yl)-1,3,4-oxadiazol-2-yl)-3-(6-azaspiro[2.5]octan-6-yl)phenyl)ethane-1-sulfonamide] | 74 | 337 | 46 |
| Cc1cc(-c2cn(-c3ccc(NS(=O)(=O)C4(CO)CC4)cc3N3CCC4(CC3)CC4)nn2)nc(N2CCC(F)(F)CC2)n1 [Example 85, N-(3-{6-azaspiro[2.5]octan-6-yl}-4-{4-[2-(4,4-difluoropiperidin-1-yl)-6-methylpyrimidin-4-yl]-1H-1,2,3-triazol-1-yl}phenyl)-1-(hydroxymethyl)cyclopropane-1-sulfonamide] | 25 | 34 | 188 |
| Cc1cc(-c2cn(-c3ccc(NS(=O)(=O)CCO)cc3N3CCC4(CC3)CC4)nn2)cc(N2CCC(F)(F)CC2)c1[N+](=O)[O-] [Example 78, N-(3-{6-azaspiro[2.5]octan-6-yl}-4-{4-[3-(4,4-difluoropiperidin-1-yl)-5-methyl-4-nitrophenyl]-1H-1,2,3-triazol-1-yl}phenyl)-2-hydroxyethane-1-sulfonamide] | > 3000 | > 3000 | > 3000 |
| Cc1cc(-c2cn(-c3ccc(NS(=O)(=O)CCO)cc3N3CCC4(CC3)CC4)nn2)nc(C2=CCC(F)(F)CC2)n1 [Example 37, N-(4-(4-(2-(4,4-difluorocyclohex-1-en-1-yl)-6-methylpyrimidin-4-yl)-1H-1,2,3-triazol-1-yl)-3-(6-azaspiro[2.5]octan-6-yl)phenyl)-2-hydroxyethane-1-sulfonamide] | 87 | 161 | 253 |
| O=S(=O)(CCO)Nc1ccc(-n2cc(-c3cc4cccnc4c(N4CCC(F)(F)CC4)c3F)nn2)c(N2CCC3(CC2)CC3)c1 [Example 73, N-(3-{6-azaspiro[2.5]octan-6-yl}-4-{4-[8-(4,4-difluoropiperidin-1-yl)-7-fluoroquinolin-6-yl]-1H-1,2,3-triazol-1-yl}phenyl)-2-hydroxyethane-1-sulfonamide] | 34 | 63 | 271 |
| O=S(=O)(CCO)Nc1ccc(/C(F)=C\c2cc(N3CCC(F)(F)CC3)c3ncccc3c2)c(N2CCC3(CC2)CC3)c1 [Example 3, (E)-N-(4-(2-(8-(4,4-difluoropiperidin-1-yl)quinolin-6-yl)-1-fluorovinyl)-3-(6-azasppiro[2.5]octan-6-yl)phenyl)-2-hydroxyethane-1-sulfonamide] | 181 | 210 | 852 |
| Cc1cc(-c2nnc(-c3ccc(NS(=O)(=O)CCO)cc3N3CCC4(CC3)CC4)o2)nc(N2CCC(F)(F)CC2)c1 [Example 25, N-(4-(5-(6-(4,4-difluoropiperidin-1-yl)-4-methylpyridin-2-yl)-1,3,4-oxadiazol-2-yl)-3-(6-azaspiro[2.5]octan-6-yl)phenyl)-2-hydroxyethane-1-sulfonamide] | 91 | 122 | 46 |
| Cc1cc(-c2nnn(-c3ccc(NS(=O)(=O)CCO)cc3N3CCC4(CC3)CC4)c2C)nc(N2CCC(F)(F)CC2)n1 [Example 69, N-(3-{6-azaspiro[2.5]octan-6-yl}-4-{4-[2-(4,4-difluoropiperidin-1-yl)-6-methylpyrimidin-4-yl]-5-methyl-1H-1,2,3-triazol-1-yl}phenyl)-2-hydroxyethane-1-sulfonamide] | 1500 | > 3000 | > 3000 |
| CC(C)(O)c1cc(-c2cn(-c3ccc(NS(=O)(=O)CCO)cc3N3CCC4(CC3)CC4)nn2)nc(N2CCC(F)(F)CC2)n1 [Example 71, N-(4-(4-(2-(4,4-difluoropiperidin-1-yl)-6-(2-hydroxypropan-2-yl)pyrimidin-4-yl)-1H-1,2,3-triazol-1-yl)-3-(6-azaspiro[2.5]octan-6-yl)phenyl)-2-hydroxyethanesulfonamide] | 94 | 131 | 165 |
| Cc1cc(-n2cc(-c3ccc(NS(=O)(=O)[C@H](C)CO)cc3N3CCC4(CC3)CC4)nn2)nc(N2CCC(F)(F)CC2)n1 [Example 92, (2R)—N-(3-{6-azaspiro[2.5]octan-6-yl}-4-{1-[2-(4,4-difluoropiperidin-1-yl)-6-methylpyrimidin-4-yl]-1H-1,2,3-triazol-4-yl}phenyl)-1-hydroxypropane-2-sulfonamide] | 93 | 50 | 232 |
| Cn1cc(-c2ccc(-c3nnc(-c4ccc(NS(=O)(=O)CCO)cc4N4CCC5(CC4)CC5)o3)nc2N2CCC(F)(F)CC2)cn1 [Example 31, N-(4-(5-(6-(4,4-difluoropiperidin-1-yl)-5-(1-methyl-1H-pyrazol-4-yl)pyridin-2-yl)-1,3,4-oxadiazol-2-yl)-3-(6-azaspiro[2.5]octan-6-yl)phenyl)-2-hydroxyethane-1-sulfonamide] | 16 | 11 | 161 |
| Cc1cc(-n2nnc(-c3ccc(NS(=O)(=O)CCO)cc3N3CCC4(CC3)CC4)n2)cc(N2CCC(F)(F)CC2)n1 [Example 9, N-(4-(2-(2-(4,4-difluoropiperidin-1-yl)-6-methylpyridin-4-yl)-2H-tetrazol-5-yl)-3-(6-azaspiro[2.5]octan-6-yl)phenyl)-2-hydroxyethane-1-sulfonamide] | 107 | 165 | 312 |
